# Tested on: recurrent MI
# Assay: CARE: CHD statin response (recurrent MI) by SNP genotype, hazard ratio pravastatin vs placebo (Table 22)
# Assay type: in vivo, human
# Conditions: rs873134 (hCV2652047), ref = placebo
# Description: In the analysis for which the results are provided in Table 22, the endpoint was recurrent MI, and the analysis was adjusted for age, gender, hypertension, diabetes, base LDL and HDL, and whether an individual was a current smoker.
# In Tables 20-22, certain columns are labeled “RESP”, “PLACEBO, OR “ALL”. “RESP” is for statin response as measured by comparing risk (risk for stroke, including TIA, in Tables 20-21, and risk for CHD, specifically recurrent MI, in Table 22) in the pravastatin-treated group with risk in the placebo-treated group, “PLACEBO” is the placebo-treated group, and “ALL” is the combination of the placebo-treated group and the pravastatin-treated group. “RESP” is the analysis to assess statin response in the indicated genotype group.
# “EVENTS” indicates the total number of events (stroke or TIA for Tables 20-21, and recurrent MI for Table 22) in individuals with the indicated genotype.
# “HR” indicates the hazard ratio.
# CARE was a secondary prevention trial and WOSCOPS was a primary prevention trial.
# Thus, SNP rs873134 is an example of a SNP that is associated with statin response for reducing risk for both stroke and CHD. In the analysis for which the results are provided in Table 22, the endpoint was recurrent MI, and the analysis was adjusted for age, gender, hypertension, diabetes, base LDL and HDL, and whether an individual was a current smoker.
compound,measurement,setting,value
"CC[C@H](C)C(=O)O[C@H]1C[C@H](O)C=C2C=C[C@H](C)[C@H](CC[C@@H](O)C[C@@H](O)CC(=O)O)[C@H]21 [Pravastatin, pravastatin]","HR_RESP (hazard ratio pravastatin vs placebo, CHD)","MODE DOM, genotype TC + TT",0.85
same,"HR_RESP (hazard ratio pravastatin vs placebo, CHD)","MODE GEN, genotype CC",0.48
same,"HR_RESP (hazard ratio pravastatin vs placebo, CHD)","MODE GEN, genotype TC",1
same,"HR_RESP (hazard ratio pravastatin vs placebo, CHD)","MODE GEN, genotype TT",0.57

# Reference: patent US10563263B2, “Genetic polymorphisms associated with statin response and cardiovascular diseases, methods of detection and uses thereof” (CELERA CORPORATION, priority 2010, dated 2020)
